# In patent publication US9567327B2, “Imidazo[1,2-a]pyridine derivatives as modulators of the 5-HT2A serotonin receptor useful for the treatment of disorders related thereto” (Arena Pharmaceuticals, Inc., priority 2007, dated 2017):
# Assays:
# normal volunteers = test: APD125 Phase 1 trials / afternoon nap model of insomnia in normal volunteers; format: in vivo, human
# Excerpt: APD125, a potent and selective 5-HT2A serotonin receptor inverse agonist is a member of the genus disclosed in the European Patent EP1558582. […] These effects occurred at the expense of REM sleep. Sleep onset latency was not decreased by APD125.
# diabetic rats = details: cited from earlier work
# [1] = target: human 5-HT2A serotonin receptor (Homo sapiens (Human), UniProt P28223); details: 0.5 nM [125I]DOI, COS7 membranes with recombinant human 5-HT2A; read-out: IC50 DOI Binding Assay
# [2] = tested on: DOI-induced hypolocomotion in rats; test: Attenuation of DOI-induced hypolocomotion in rats; format: in vivo, rat; details: male Sprague-Dawley rats, compound 1-10 mg/kg p.o., DOI 1 mg/kg s.c.
# Description: In this example, compounds of the invention were tested for inverse agonist activity by determining whether these compounds could attenuate DOI-induced hypolocomotion in rats in a novel environment. DOI is a potent 5-HT2A/2C receptor agonist that crosses the blood-brain barrier. The standard protocol used is described briefly below.
# Male Sprague-Dawley rats weighing between 200-350 g were used for all tests. Rats were housed three to four per cage.
# (R)-DOI HCl (C11H16INO2.HCl) was obtained from Sigma-Aldrich and was dissolved in 0.9% saline. Compounds of the invention were synthesized at Arena Pharmaceuticals Inc., San Diego, Calif. and were dissolved in 100% PEG400. DOI was injected s.c. in a volume of 1 mL/kg, while compounds of the invention were administered p.o. in a volume of 1 mL/kg.
# The “Motor Monitor” (Hamilton-Kinder, Poway, Calif.) was used for all activity measurement. This apparatus recorded rears using infrared photobeams. […]
# In determining the effects of compounds of the invention on DOI-induced hypoactivity, animals were first injected with vehicle or the compound of the invention (1-10 mg/kg) in their home cages. […] Ten minutes after DOI administration, animals were placed into the activity apparatus and rearing activity was measured for 10 min.
# Results (total rears over 10 min) were analyzed by t-test. […]
# [3] = tested on: DOCA-salt induced hypertension in rats; details: cited from earlier work
# heatstroke = details: in vivo; cited from earlier work
# glaucoma patients = details: cited from earlier work
# JC virus = details: cited from earlier work
# [4] = tested on: spontaneously hypertensive rats; details: cited from earlier work
# humans = details: sciatica from lumbar disc herniation; cited from earlier work
# rats = details: thermal induced pain i.p., inflammatory pain intrathecal or i.p.; cited from earlier work
# diabetic nephropathy = details: patients, 24 months of treatment; cited from earlier work
structure (smiles),measurement,setting,value
COc1ccc(NC(=O)Nc2ccc(F)cc2F)cc1-c1c(Br)cnn1C [APD125],effect on waking EEG,"normal volunteers; Phase 1 trials, maximal effects at 40-80 mg",vigilance-lowering effects
same,"microarousals, sleep stage shifts and awakenings after sleep onset",normal volunteers; afternoon nap model,"decreased microarousals, the number of sleep stage shifts and number of awakenings after sleep onset"
same,slow wave sleep and associated parameters,"normal volunteers; afternoon nap model of insomnia, normal volunteers",increased slow wave sleep and associated parameters in a dose-dependent manner
same,sleep onset latency,"normal volunteers; afternoon nap model, normal volunteers",not decreased
O=CN1CCC(C(=O)NCCN2CCC(=C3c4ccccc4C=Cc4ccccc43)CC2)CC1 [AT-1015],correction of a 19.8% sciatic motor conduction deficit,diabetic rats,82.6-99.7%
"O=C(c1cccn2cc(-c3ccccc3)nc12)N1CCN(CCc2ccc(F)cc2)CC1 [Compound 9, (4-(4-Fluorophenethyl)piperazin-1-yl)(2-phenylimidazo[1,2-α]pyridin-8-yl)methanone]",IC50,[1],46 nM
"O=C(c1cccn2ccnc12)N1CCN(CC(F)c2ccc(F)cc2)CC1 (stereo not drawn) [Compound 10, (4-(2-Fluoro-2-(4-fluorophenyl)ethyl)piperazin-1-yl)(imidazo[1,2-α]pyridin-8-yl)methanone]",IC50,[1],10 nM
"O=C(c1cccn2ccnc12)N1CCN(CCc2ccccc2F)CC1 [Compound 18, (4-(2-Fluorophenethyl)piperazin-1-yl)(imidazo[1,2-α]pyridin-8-yl)methanone]",attenuation of DOI-induced hypolocomotion (total rears over 10 min),[2],attenuated DOI-induced hypolocomotion
"O=C(c1cccn2ccnc12)N1CCN(CCc2ccc(Cl)cc2Cl)CC1 [Compound 19, (4-(2,4-Dichlorophenethyl)piperazin-1-yl)(imidazo[1,2-α]pyridin-8-yl)methanone]",attenuation of DOI-induced hypolocomotion (total rears over 10 min),[2],attenuated DOI-induced hypolocomotion
CN1CCN2c3ccccc3Cc3ccccc3C2C1 (stereo not drawn) [Mainserin],DOCA-salt induced hypertension,[3],prevent DOCA-salt induced hypertension
O=C(c1ccc(F)cc1)C1CCN(CCn2c(=O)[nH]c3ccccc3c2=O)CC1 [ketanserin],protection during heatstroke,heatstroke,"protect against circulatory shocks, intracranial hypertension and cerebral ischemia during heatstroke"
same,intra ocular pressure (IOP),glaucoma patients,significantly lower IOP
same,JC virus infection of human glial cells,JC virus,inhibited JC virus infection of human glial cells
same,blood pressure,[4],stabilize blood pressure
Cc1nc2sccn2c(=O)c1CCN1CCC(=C(c2ccc(F)cc2)c2ccc(F)cc2)CC1 [ritanserin],correction of a 19.8% sciatic motor conduction deficit,diabetic rats,82.6-99.7%
same,JC virus infection of human glial cells,JC virus,inhibited JC virus infection of human glial cells
COc1cccc(CCc2ccccc2OCC(CN(C)C)OC(=O)CCC(=O)O)c1 (stereo not drawn) [sarpogrelate],"treatment of lower back pain, leg pain and numbness",humans,effective treatment
same,correction of a 19.8% sciatic motor conduction deficit,diabetic rats,82.6-99.7%
same,analgesic effect,rats,significant analgesic effect
same,urinary albumin excretion level,diabetic nephropathy,significantly reduced
same,intra ocular pressure (IOP),glaucoma patients,significantly lower IOP
